Results reported in patent publication US20240277846A1, “MAGNETIC BIOMOLECULE-METAL ION SELF-ASSEMBLED COMPLEX FOR TREATMENT” (priority 2023, published 2024).
Counter-ions that a name gives are not always drawn.

How the values were obtained:
[1] = target: T1, P2X7 (Homo sapiens, UniProt Q99572); experiment: Western blotting of macrophage signaling, P2X7; type: cell-based; details: low concentration
T1 construct: endogenous in cells
T1 sequence (Q99572 1-595): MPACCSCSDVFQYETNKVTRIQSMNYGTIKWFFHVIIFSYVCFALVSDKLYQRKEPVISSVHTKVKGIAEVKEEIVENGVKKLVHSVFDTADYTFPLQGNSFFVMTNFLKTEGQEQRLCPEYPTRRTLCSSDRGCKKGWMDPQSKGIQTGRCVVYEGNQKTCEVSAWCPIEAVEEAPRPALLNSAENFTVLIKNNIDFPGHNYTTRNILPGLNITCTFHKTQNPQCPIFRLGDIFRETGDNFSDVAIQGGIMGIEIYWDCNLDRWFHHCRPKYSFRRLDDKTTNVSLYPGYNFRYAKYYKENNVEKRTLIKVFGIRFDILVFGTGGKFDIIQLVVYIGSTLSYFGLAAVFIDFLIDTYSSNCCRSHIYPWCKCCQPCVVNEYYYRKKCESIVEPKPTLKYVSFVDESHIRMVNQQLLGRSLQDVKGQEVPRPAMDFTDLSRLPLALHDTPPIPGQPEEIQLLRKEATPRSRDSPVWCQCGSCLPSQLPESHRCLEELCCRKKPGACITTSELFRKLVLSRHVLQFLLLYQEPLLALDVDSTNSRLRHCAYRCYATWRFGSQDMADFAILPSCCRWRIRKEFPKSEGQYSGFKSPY
From the text: (§1) It was identified that the Fe-ATP self-assembly was disassembled into the ATP and the iron ion such that the ATP was released therefrom, and this enabled AIP-mediated anti-inflammatory polarization of macrophages.

[2] = target: T2, P2Y1 (Homo sapiens, UniProt P47900); experiment: Western blotting of macrophage signaling, P2Y1; type: cell-based; details: low concentration
T2 construct: endogenous in cells
From the text: as §1

[3] = system: macrophages; experiment: Macrophage polarization (immunofluorescence Arg-1/iNOS, flow cytometry); type: cell-based; details: immunofluorescence staining
From the text: FIG. 15 to FIG. 17 show experiments according to each of the treatment conditions in cells before experimenting in rats according to Experimental Example 2 below. As shown in a following table 6, the conditions were divided into the control group: PBS only based treatment, Fe-ATP based treatment, ATP only based treatment, FeCl2 based treatment, and Fe3O4 based treatment. FIG. 15 is the result of identifying disassembling of the Fe-ATP self-assembly. Referring to FIG. 15, under each treatment condition, an experiment result was identified via immunofluorescence staining of […] (M2 polarization marker), iNOS (M1 polarization marker), and Dapi. […] This was identified through flow cytometry.

[4] = system: stem cells; experiment: Osteogenic differentiation of stem cells (RUNX2, osteocalcin immunofluorescence, ALP staining); type: cell-based
From the text: FIG. 27 and FIG. 28 show experiments according to each of treatment conditions in cells before experimenting in rabbits according to Experimental Example 3 below. As shown in a following table 7, the treatment conditions include treatment with only PBS as a control group, treatment with Fe-AMP, treatment with AMP only, treatment with a combination of adenosine and PO4 (Adenosine+PO4), treatment with Adenosine, treatment with PO4, treatment with FeCl2, and treatment with an osteogenic induction medium. In this regard, FeCl2 was disassembled into Fe^2+ and Cl—. Thus, the treatment with FeCl2 was added to compare the released Fe^2+ therefrom with the Fe^2+ released from the […]. […] The adenosine obtained via decomposition of the AMP released from the Fe-AMP self-assembly was similar to osteogenic differentiation medium, and was analyzed via actin and dapi-positive nuclei and ALP chemical staining along with immunofluorescence staining of RUNX2 and osteocalcin. […] In other words, the Fe-AMP self-assembly induces osteogenic differentiation of stem cells through adenosine signaling. This was identified via immunofluorescence staining of RUNX2 and osteocalcin along with actin, dapi-positive nuclei, and ALP chemical staining.

[5] = system: ROS; experiment: IVIS L-012 ROS signal analysis in vivo; parameters: species or system mouse; details: 2 hours after the injection
Method: Luminescent probes L-012 (Wako Chemical, Korea) were dissolved in […] a thus prepared solution was maintained in a fresh state just before the experiment. In a 50 […] injection volume, 25 mg/kg thereof was administered subcutaneously to a back of a mouse. Chemiluminescence (CL) release assessment was started immediately after the injection of L-012 using indiGOTM software and IVIS (In vivo Imaging System, NightOWL II LB 983, BERTHOLD Technologies GmbH, Germany). To collect sufficient CL release data, the mouse was exposed thereto for 20 seconds each time. CL released from the mouse skin was recorded and visualized in real time, and then the CL released in an area of interest was quantified as total flux (photons/second).

[6] = system: hMSCs; experiment: Western blotting of osteogenic differentiation via adenosine-A2B receptor signaling; type: cell-based

T2 sequence (P47900 whole entry, species assumed): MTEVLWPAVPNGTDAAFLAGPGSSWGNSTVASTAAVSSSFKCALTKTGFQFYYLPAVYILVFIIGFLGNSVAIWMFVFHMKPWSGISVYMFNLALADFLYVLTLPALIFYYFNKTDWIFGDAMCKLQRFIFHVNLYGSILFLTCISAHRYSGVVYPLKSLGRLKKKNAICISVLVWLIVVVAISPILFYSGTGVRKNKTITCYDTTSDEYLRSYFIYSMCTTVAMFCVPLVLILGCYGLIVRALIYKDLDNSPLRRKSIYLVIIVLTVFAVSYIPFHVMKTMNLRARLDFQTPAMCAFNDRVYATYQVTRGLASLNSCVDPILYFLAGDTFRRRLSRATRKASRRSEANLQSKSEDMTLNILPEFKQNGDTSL

Nc1ncnc2c1ncn2[C@@H]1O[C@H](COP(=O)([O-])OP(=O)([O-])OP(=O)(O)O)[C@@H](O)[C@H]1O.[Na+].[Na+] [ATP, Adenosine 5′-triphosphate disodium salt]
P2X7 signaling [1]: inhibited P2X7 signaling | P2Y1 signaling [2]: stimulated P2Y1 signaling | Arg-1 (M2 polarization marker) expression [3]: strongly expressed

Nc1ncnc2c1ncn2[C@@H]1O[C@H](CO)[C@@H](O)[C@H]1O [Adenosine]
Osteogenic differentiation of stem cells [4]: induced the osteogenic differentiation to a similar level thereto

COc1cccc2c1C(=O)c1c(O)c3c(c(O)c1C2=O)C[C@@](O)(C(=O)CO)C[C@@H]3O[C@H]1C[C@H](N)[C@H](O)[C@H](C)O1 [Doxorubicin (DOX), Doxorubicin hydrochloride]
ROS production in vivo (L-012 signal) [5]: has little effect on the ROS release in a short period of time

[Cl][Fe][Cl] [FeCl2, Iron(II) chloride]
Arg-1 (M2 polarization marker) expression [3]: not expressed

CCCn1c(=O)[nH]c2nc(-c3ccc(S(=O)(=O)N4CCN(c5ccc(Cl)cc5)CC4)cc3)[nH]c2c1=O [PSB 603]
Osteogenic differentiation of hMSCs [6]: osteogenic differentiation of hMSCs was inhibited
